Assay results reported in PubChem BioAssay (NCI).
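Growth conditions: 96-well plates. Treatment: test compound, 48 hours, 5 concentrations. Analysis: linear interpolation between bracketing concentrations; unreached endpoints set to highest concentration. GI50 = concentration required for 50% inhibition of growth. TGI marks complete inhibition of growth.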

Tests used:
Assay in all cases: DTP human tumour cell line panel, 48 h
786-0 renal = system: 786-0 renal
A498 renal = system: A498 renal
A549 NSCLC = system: A549 NSCLC
ACHN renal = system: ACHN renal
BT-549 breast = system: BT-549 breast
CAKI-1 renal = system: CAKI-1 renal
CCRF-CEM leukemia = system: CCRF-CEM leukemia
COLO 205 colon = system: COLO 205 colon
DU-145 prostate = system: DU-145 prostate
EKVX NSCLC = system: EKVX NSCLC
HCC-2998 colon = system: HCC-2998 colon
HCT-116 colon = system: HCT-116 colon
HCT-15 colon = system: HCT-15 colon
HL-60(TB) leukemia = system: HL-60(TB) leukemia
HOP-62 NSCLC = system: HOP-62 NSCLC
HOP-92 NSCLC = system: HOP-92 NSCLC
HS 578T breast = system: HS 578T breast
HT29 colon = system: HT29 colon
IGROV1 ovarian = system: IGROV1 ovarian
K-562 leukemia = system: K-562 leukemia
KM12 colon = system: KM12 colon
LOX IMVI melanoma = system: LOX IMVI melanoma
M14 melanoma = system: M14 melanoma
MALME-3M melanoma = system: MALME-3M melanoma
MCF7 breast = system: MCF7 breast
MDA-MB-231 breast = system: MDA-MB-231 breast
MDA-MB-435 = system: MDA-MB-435
MOLT-4 leukemia = system: MOLT-4 leukemia
NCI-H226 lung = system: NCI-H226 lung
NCI-H23 lung = system: NCI-H23 lung
NCI-H460 lung = system: NCI-H460 lung
NCI-H522 lung = system: NCI-H522 lung
NCI/ADR-RES ovarian = system: NCI/ADR-RES ovarian
OVCAR-3 ovarian = system: OVCAR-3 ovarian
OVCAR-4 ovarian = system: OVCAR-4 ovarian
OVCAR-5 ovarian = system: OVCAR-5 ovarian
OVCAR-8 ovarian = system: OVCAR-8 ovarian
PC-3 prostate = system: PC-3 prostate
RPMI-8226 leukemia = system: RPMI-8226 leukemia
RXF 393 renal = system: RXF 393 renal
SF-268 CNS = system: SF-268 CNS
SF-295 CNS = system: SF-295 CNS
SF-539 CNS = system: SF-539 CNS
SK-MEL-28 melanoma = system: SK-MEL-28 melanoma
SK-MEL-5 melanoma = system: SK-MEL-5 melanoma
SK-OV-3 ovarian = system: SK-OV-3 ovarian
SN12C renal = system: SN12C renal
SNB-19 CNS = system: SNB-19 CNS
SNB-75 CNS = system: SNB-75 CNS
SW-620 colon = system: SW-620 colon
T-47D breast = system: T-47D breast
TK-10 renal = system: TK-10 renal
U251 CNS = system: U251 CNS
UACC-257 melanoma = system: UACC-257 melanoma
UACC-62 melanoma = system: UACC-62 melanoma
UO-31 renal = system: UO-31 renal

## COc1cc2c(cc1OCCCOC1=C=C=C(c3ccc4c(c3)c3cc(-c5ccc(OCCCOc6cc7c(cc6OC)C(=O)N6CCC[C@H]6C=N7)cc5)ccc3n4S(=O)(=O)c3ccc(C)cc3)C=C1)N=C[C@@H]1CCCN1C2=O
786-0 renal
  GI50: 1.38 µM
  TGI: 4.12 µM
A498 renal
  GI50: 3.14 µM
  TGI: 9.06 µM
A549 NSCLC
  GI50: 6.7 µM
  TGI: 20.5 µM
ACHN renal
  GI50: 1.75 µM
  TGI: 7.8 µM
BT-549 breast
  GI50: 1.16 µM
  TGI: 4.59 µM
CAKI-1 renal
  GI50: 1.29 µM
  TGI: 6.21 µM
CCRF-CEM leukemia
  GI50: 0.19 µM
  TGI: > 50 µM
COLO 205 colon
  GI50: 1.9 µM
  TGI: 9.78 µM
DU-145 prostate
  GI50: 1.13 µM
  TGI: 2.73 µM
EKVX NSCLC
  GI50: 9.35 µM
  TGI: 22.9 µM
HCC-2998 colon
  GI50: 0.731 µM
  TGI: 3.67 µM
HCT-116 colon
  GI50: 1.62 µM
  TGI: 7.05 µM
HCT-15 colon
  GI50: 7 µM
  TGI: 20.3 µM
HL-60(TB) leukemia
  GI50: 0.826 µM
  TGI: > 11.4 µM
HOP-62 NSCLC
  GI50: 1.99 µM
  TGI: 8.6 µM
HOP-92 NSCLC
  GI50: 0.79 µM
  TGI: 3.37 µM
HS 578T breast
  GI50: 1.42 µM
  TGI: > 10.8 µM
HT29 colon
  GI50: 1.44 µM
  TGI: > 20.5 µM
IGROV1 ovarian
  GI50: 1.8 µM
  TGI: 8.69 µM
K-562 leukemia
  GI50: 1.06 µM
  TGI: > 18.6 µM
KM12 colon
  GI50: 1.46 µM
  TGI: 4.3 µM
LOX IMVI melanoma
  GI50: 1.49 µM
  TGI: 7.51 µM
M14 melanoma
  GI50: 1.58 µM
  TGI: 6.93 µM
MALME-3M melanoma
  GI50: 3.26 µM
  TGI: 10.2 µM
MCF7 breast
  GI50: 1.23 µM
  TGI: 11.3 µM
MDA-MB-231 breast
  GI50: 5.31 µM
  TGI: 16 µM
MDA-MB-435
  GI50: 2.07 µM
  TGI: 5.25 µM
MOLT-4 leukemia
  GI50: 0.739 µM
  TGI: > 50 µM
NCI-H226 lung
  GI50: 4 µM
  TGI: 12.9 µM
NCI-H23 lung
  GI50: 2.57 µM
  TGI: 24.2 µM
NCI-H460 lung
  GI50: 1.38 µM
  TGI: 7.99 µM
NCI-H522 lung
  GI50: 3.53 µM
  TGI: 39.6 µM
NCI/ADR-RES ovarian
  GI50: > 26.1 µM
  TGI: > 50 µM
OVCAR-3 ovarian
  GI50: 0.959 µM
  TGI: 2.23 µM
OVCAR-4 ovarian
  GI50: 3.58 µM
  TGI: 30.9 µM
OVCAR-5 ovarian
  GI50: 5.87 µM
  TGI: 17.8 µM
OVCAR-8 ovarian
  GI50: 1.54 µM
  TGI: > 17 µM
PC-3 prostate
  GI50: 1.27 µM
  TGI: > 28.9 µM
RPMI-8226 leukemia
  GI50: 0.665 µM
  TGI: > 14.5 µM
RXF 393 renal
  GI50: 1.17 µM
  TGI: 2.59 µM
SF-268 CNS
  GI50: 0.934 µM
  TGI: 2.85 µM
SF-295 CNS
  GI50: 1.14 µM
  TGI: 4.62 µM
SF-539 CNS
  GI50: 1.74 µM
  TGI: 6.3 µM
SK-MEL-28 melanoma
  GI50: 1.86 µM
  TGI: 4.97 µM
SK-MEL-5 melanoma
  GI50: 4.26 µM
  TGI: 11.1 µM
SK-OV-3 ovarian
  GI50: 5.42 µM
  TGI: 16.5 µM
SN12C renal
  GI50: 2 µM
  TGI: 9.98 µM
SNB-19 CNS
  GI50: 3.5 µM
  TGI: 38.7 µM
SNB-75 CNS
  GI50: 1.03 µM
  TGI: 5.33 µM
SW-620 colon
  GI50: 1.16 µM
  TGI: 6.33 µM
T-47D breast
  GI50: 1.3 µM
  TGI: 19.1 µM
TK-10 renal
  GI50: 1.27 µM
  TGI: 5.05 µM
U251 CNS
  GI50: 0.966 µM
  TGI: 2.87 µM
UACC-257 melanoma
  GI50: 6.71 µM
  TGI: 15.6 µM
UACC-62 melanoma
  GI50: 1.89 µM
  TGI: 8.76 µM
UO-31 renal
  GI50: 3.21 µM
  TGI: 11.4 µM
